From patent US12116636B2, “Methods for evaluating tumor cell spheroids using 3D microfluidic cell culture device” (Dana-Farber Cancer Institute, Inc., priority 2017, dated 2024)

Tests used:
CT26 allograft = assay: In vivo Compound 1 combination treatment, allograft; set-up: species or system Balb/c mice; conditions: Compound 1 40 mg/kg oral daily + anti-PD-L1 10 mg/kg every 5 days
Method: (§1) Combination studies were performed by vivoPharm (Hummelstown, PA, USA). All procedures used in the performance of these studies were carried out in accordance with vivoPharm's Standard Operating Procedures, with particular reference to US_SOPvP_EF0314 “General Procedures for Efficacy Studies.” CT26 colon carcinoma cells (1×10^6 cells/mouse in 100 μL, passage 2-3) were re-suspended in serum-free DMEM and implanted in the upper right flank of 11-12 week old female Balb/c mice (Charles River Laboratories). Mice were randomized into four groups of 10 using a matched pair distribution method based on tumor size for CT26. Treatment was initiated 12 days post-inoculation with mean tumor volume at start of dosing of 125.85 mm^3. Vehicle or Compound 1 (40 mg/kg) was administered by oral gavage daily for 26 days and isotype control or a reverse chimera anti-PD-L1 cloned from literature reports (e.g., Deng, R. et al. MAbs (2016), the content of which is incorporated herein by reference in entirety) and placed into a mouse IgG1 framework (10 mg/kg) was administered every 5 days for a total of six doses. Investigators were not blinded to treatment groups. […] Mice were scarified on Day 13 and lung metastases were quantified (small≤1 mm, medium>1 mm and ≤3 mm, large>3 mm). No large lung metastases were detected.

CT26 and EMT6 cells = assay: Re-implantation of CT26 and EMT6 cells after combination therapy (immunologic memory); format: in vivo, mice; conditions: previously treated with anti-PD-L1 + Compound 1
Method: as §1

MB49 allograft = assay: In vivo Compound 1 combination treatment, allograft; set-up: species or system B6 mice; conditions: Cmpd1 + αPD-L1

N#Cc1cc(-c2ncnc(Nc3ccc(N4CCN(C5COC5)CC4)cc3)n2)ccc1OC1CCOCC1 [Compound 1, 5-(4-((4-(4-(oxetan-3-yl)piperazin-1-yl)phenyl)amino)-1,3,5-triazin-2-yl)-2-((tetrahydro-2H-pyran-4-yl)oxy)benzonitrile]
survival, CT26 allograft, combination vs Cmpd1 or anti-PD-L1 alone (CT26 allograft): longer survival
tumour control, CT26 allograft, combination vs Cmpd1 or anti-PD-L1 alone (CT26 allograft): greater tumour control
growth of reimplanted CT26 in mice with exceptional responses to combination therapy (CT26 and EMT6 cells): no growth
response to combination treatment in vivo, MB49 bladder carcinoma (MB49 allograft): enhanced response
